Like-named read-outs stand apart in the source and are kept apart here.
Tests used:
[1] = biological target: T1, c-Met (cytoplasmic domain) (Homo sapiens, UniProt P08581); test: c-Met Kinase Assay (same methods as for ALK, with modifications); format: biochemical
T1 construct: 10 ng/mL c-Met (cytoplasmic domain, Invitrogen Corporation #PV3143); purchased Invitrogen Corporation PV3143
Procedure, shortened: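 Plates were coated with phospholipase C-γ substrate (10 μg/mL) in TBS, and the reaction was started with 10 ng/mL c-Met cytoplasmic domain and run 15 min at 37 °C. Phosphoproduct was detected with Eu-N1-labelled PT66 antibody. IC50 came from a variable-slope sigmoidal fit of percent inhibition vs log concentration.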

[2] = biological target: T2, baculovirus-expressed ALK (Homo sapiens, UniProt Q9UM73); test: ALK Kinase Assay (ELISA-type, time-resolved fluorescence); format: biochemical
T2 construct: host or cells: baculovirus expression system
Procedure, shortened: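 Plates coated with phospholipase C-γ substrate (10 μg/mL in TBS); reaction started with 30 ng/ml ALK and run 15 min at 37° C. Phosphorylated substrate detected with Eu-N1-labeled PT66 antibody. IC50 from sigmoidal variable-slope fit of percent inhibition vs log concentration.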

[3] = c-Met kinase inhibition, 1 μM ATP, read-out: cMet Activity
[4] = ALK kinase inhibition, 1 μM ATP, read-out: ALK Activity
[5] = c-Met kinase inhibition, 1 μM ATP (Km level), read-out: cMet Activity
[6] = ALK kinase inhibition, 1 μM ATP (Km level), read-out: ALK Activity
[7] = 1 μM ATP (Km level), 10 ng/mL c-Met, read-out: cMet Activity (c-Met kinase inhibition, IC50 class)
[8] = 1 μM ATP (Km level), 30 ng/ml ALK, 37° C., 15 minutes, read-out: ALK Activity (ALK kinase inhibition, IC50 class)
[9] = 1 μM ATP (Km level), read-out: cMet Activity (c-Met Kinase Inhibition, IC50)
[10] = 1 μM ATP (Km level), read-out: ALK Activity (ALK Kinase Inhibition, IC50)

T1 sequence (P08581 956-1390 limits assumed): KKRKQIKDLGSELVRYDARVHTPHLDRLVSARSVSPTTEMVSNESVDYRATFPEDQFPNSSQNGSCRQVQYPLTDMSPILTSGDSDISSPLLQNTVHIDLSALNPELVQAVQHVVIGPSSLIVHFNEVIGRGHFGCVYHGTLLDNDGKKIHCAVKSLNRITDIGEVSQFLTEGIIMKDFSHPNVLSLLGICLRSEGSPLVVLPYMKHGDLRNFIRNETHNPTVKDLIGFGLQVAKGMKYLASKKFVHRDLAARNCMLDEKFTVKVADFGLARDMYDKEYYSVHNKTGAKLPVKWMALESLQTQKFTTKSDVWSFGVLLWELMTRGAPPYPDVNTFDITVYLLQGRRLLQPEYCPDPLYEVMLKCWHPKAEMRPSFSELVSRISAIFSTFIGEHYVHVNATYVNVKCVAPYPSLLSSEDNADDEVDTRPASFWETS
T2 sequence (Q9UM73 19-1620): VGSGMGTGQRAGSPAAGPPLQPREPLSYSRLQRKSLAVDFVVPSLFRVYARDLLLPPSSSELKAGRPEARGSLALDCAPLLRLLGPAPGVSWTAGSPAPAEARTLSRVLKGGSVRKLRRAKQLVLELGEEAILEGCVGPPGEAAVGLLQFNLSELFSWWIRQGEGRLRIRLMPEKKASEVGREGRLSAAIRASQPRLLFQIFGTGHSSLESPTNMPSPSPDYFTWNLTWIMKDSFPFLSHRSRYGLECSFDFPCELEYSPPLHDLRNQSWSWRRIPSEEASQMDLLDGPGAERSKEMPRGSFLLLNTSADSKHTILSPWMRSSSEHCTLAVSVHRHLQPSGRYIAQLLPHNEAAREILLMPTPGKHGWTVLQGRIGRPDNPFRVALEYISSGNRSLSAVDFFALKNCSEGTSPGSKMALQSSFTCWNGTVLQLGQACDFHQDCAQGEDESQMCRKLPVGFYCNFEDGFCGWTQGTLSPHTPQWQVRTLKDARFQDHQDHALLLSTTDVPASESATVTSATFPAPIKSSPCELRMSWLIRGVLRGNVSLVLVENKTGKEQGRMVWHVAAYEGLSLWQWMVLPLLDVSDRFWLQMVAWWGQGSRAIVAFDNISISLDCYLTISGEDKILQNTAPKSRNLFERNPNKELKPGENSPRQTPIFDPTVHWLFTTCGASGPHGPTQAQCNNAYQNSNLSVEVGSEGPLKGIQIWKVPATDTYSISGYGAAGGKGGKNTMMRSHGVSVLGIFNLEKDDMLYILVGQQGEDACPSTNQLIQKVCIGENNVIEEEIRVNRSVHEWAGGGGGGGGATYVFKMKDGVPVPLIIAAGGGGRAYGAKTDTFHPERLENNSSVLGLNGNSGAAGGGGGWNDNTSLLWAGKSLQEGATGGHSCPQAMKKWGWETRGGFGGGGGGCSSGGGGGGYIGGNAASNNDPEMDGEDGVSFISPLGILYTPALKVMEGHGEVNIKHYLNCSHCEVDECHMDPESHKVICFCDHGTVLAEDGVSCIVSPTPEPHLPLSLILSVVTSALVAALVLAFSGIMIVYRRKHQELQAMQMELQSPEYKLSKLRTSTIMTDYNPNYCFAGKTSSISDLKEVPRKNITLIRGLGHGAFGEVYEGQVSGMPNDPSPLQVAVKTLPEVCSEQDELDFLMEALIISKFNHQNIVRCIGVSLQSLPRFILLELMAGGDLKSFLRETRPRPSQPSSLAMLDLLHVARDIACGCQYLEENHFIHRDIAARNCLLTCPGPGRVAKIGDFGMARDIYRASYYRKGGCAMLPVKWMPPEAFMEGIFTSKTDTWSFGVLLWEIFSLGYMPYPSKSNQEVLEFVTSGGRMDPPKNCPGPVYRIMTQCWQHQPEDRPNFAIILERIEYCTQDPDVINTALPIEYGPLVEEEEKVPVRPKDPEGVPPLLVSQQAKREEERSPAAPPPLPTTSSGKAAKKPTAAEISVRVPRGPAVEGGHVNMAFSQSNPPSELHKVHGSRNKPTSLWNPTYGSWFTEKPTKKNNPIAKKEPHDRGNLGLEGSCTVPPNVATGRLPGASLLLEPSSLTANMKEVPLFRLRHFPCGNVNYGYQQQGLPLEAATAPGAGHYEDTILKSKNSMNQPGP

**Q.** With `CNC(=O)c1cccc(F)c1Nc1nc(Nc2ccc3c(c2)N(C(C)=O)CCCC3)ncc1Cl` [Example 1489, 2-[2-(1-Acetyl-2,3,4,5-tetrahydro-1H-benzo[b]azepin-8-ylamino)-5-chloro-pyrimidin-4-ylamino]-3-fluoro-N-methyl-benzamide] as the compound, how does the IC50 [1, 3] read?
**A.** < 100 nM

**Q.** What about the IC50 [2, 4] of the same compound?
**A.** 100 to 1000 nM

**Q.** What does the source list for `CCN1C(=O)OCCc2ccc(Nc3ncc(Cl)c(Nc4ccsc4C(=O)NC)n3)cc21` [Example 1883, 3-[5-Chloro-2-(5-ethyl-6-oxo-5,6,8,9-tetrahydro-7-oxa-5-aza-benzocyclohepten-3-ylamino)-pyrimidin-4-ylamino]-thiophene-2-carboxylic acid methylamide]?
**A.** IC50 [1, 5]: < 100 nM; IC50 [2, 6]: < 100 nM

**Q.** Which results are given for `CCN1C(=O)CCCc2c1ccc(Nc1ncc(Cl)c(Nc3ccccc3-n3cccn3)n1)c2OC` [Example 1319, 7-[5-Chloro-4-(2-pyrazol-1-yl-phenylamino)-pyrimidin-2-ylamino]-1-ethyl-6-methoxy-1,3,4,5-tetrahydro-benzo[b]azepin-2-one]?
**A.** IC50 [1, 7]: > 10000 nM; IC50 [2, 8]: < 100 nM

**Q.** With `CNC(=O)c1cccc(F)c1Nc1nc(Nc2ccc3c(c2)N(C(=O)CN)CCCC3(C)C)ncc1Cl` [Example 1617, 2-{2-[1-(2-Amino-acetyl)-5,5-dimethyl-2,3,4,5-tetrahydro-1H-benzo[b]azepin-8-ylamino]-5-chloro-pyrimidin-4-ylamino}-3-fluoro-N-methyl-benzamide] as the compound, how does the IC50 [1, 3] read?
**A.** < 100 nM

**Q.** What about the IC50 [2, 4] of the same compound?
**A.** 100 to 1000 nM

**Q.** What does the source list for `CCN1C2CCC1c1cc(Nc3ncc(Cl)c(Nc4ccccc4NS(C)(=O)=O)n3)ccc1C2` (stereo not shown) [Example 72, N-{2-[5-Chloro-2-(12-ethyl-12-aza-tricyclo[7.2.1.0*2,7*]dodeca-2(7),3,5-trien-4-ylamino)-pyrimidin-4-ylamino]-phenyl}-methanesulfonamide]?
**A.** IC50 [1, 5]: 100 to 1000 nM; IC50 [2, 6]: < 100 nM

**Q.** How did the IC50 [1, 7] turn out when `CCN1C(=O)[C@@H](NC(=O)C2CC2)CCc2c1ccc(Nc1ncc(Cl)c(N[C@H]3[C@@H](C(N)=O)[C@@H]4C=C[C@H]3C4)n1)c2OC` (single isomer, unassigned) [Example 1358] was run?
**A.** > 10000 nM

**Q.** And the IC50 [2, 8]?
**A.** < 100 nM

**Q.** Which results are given for `COCC(COC)N1CCc2cc(Nc3ncc(Cl)c(N[C@H]4[C@@H](C(N)=O)[C@@H]5C=C[C@H]4C5)n3)c(OC)cc2CC1` [Example 815, (1S,2S,3R,4R)-3-{5-Chloro-2-[8-methoxy-3-(2-methoxy-1-methoxymethyl-ethyl)-2,3,4,5-tetrahydro-1H-benzo[d]azepin-7-ylamino]-pyrimidin-4-ylamino}-bicyclo[2.2.1]hept-5-ene-2-carboxylic acid amide]?
**A.** IC50 [1, 9]: > 10000 nM; IC50 [2, 10]: < 100 nM

**Q.** For `CCOC(=O)N1CC(=O)N(CC)c2cc(Nc3ncc(Cl)c(Nc4c(F)cccc4C(=O)NC)n3)ccc2C1` [Example 1875, 8-[5-Chloro-4-(2-fluoro-6-methylcarbamoyl-phenylamino)-pyrimidin-2-ylamino]-1-ethyl-2-oxo-1,2,3,5-tetrahydro-benzo[e][1,4]diazepine-4-carboxylic acid ethyl ester], which IC50 [1, 5] is on record?
**A.** < 100 nM

**Q.** What about the IC50 [2, 6] of the same compound?
**A.** 1000 to 10000 nM

**Q.** What does the source list for `NC(=O)[C@@H]1[C@H](Nc2nc(Nc3ccc4c(c3)CCC(N3CCOCC3)CC4)ncc2Cl)[C@H]2C=C[C@@H]1C2` (single isomer, unassigned) [Example 682]?
**A.** IC50 [1, 9]: 100 to 1000 nM; IC50 [2, 10]: < 100 nM

**Q.** Which results are given for `COCCNC1CCCc2c(ccc(Nc3ncc(Cl)c(N[C@H]4[C@@H](C(N)=O)[C@@H]5C=C[C@H]4C5)n3)c2OC)C1` (stereo partly drawn) [Example 956, (1S,2S,3R,4R)-3-{5-Chloro-2-[1-methoxy-6-(2-methoxy-ethylamino)-6,7,8,9-tetrahydro-5H-benzocyclohepten-2-ylamino]-pyrimidin-4-ylamino}-bicyclo[2.2.1]hept-5-ene-2-carboxylic acid amide]?
**A.** IC50 ([1]; cMet Activity (c-Met Kinase Inhibition, IC50), 1 μM ATP (Km level)): > 10000 nM; IC50 [2, 10]: < 100 nM

**Q.** How did the IC50 [1, 3] turn out when `Cc1noc(-c2cccc(F)c2Nc2nc(Nc3ccc4c(c3)CCOC(=O)N4C)ncc2Cl)n1` [Example 1785, 2-{5-Chloro-4-[2-fluoro-6-(3-methyl-[1,2,4]oxadiazol-5-yl)-phenylamino]-pyrimidin-2-ylamino}-5-methyl-8,9-dihydro-5H-7-oxa-5-aza-benzocyclohepten-6-one] was run?
**A.** 100 to 1000 nM

**Q.** What about the IC50 [2, 4] of the same compound?
**A.** 1000 to 10000 nM

**Q.** `COc1c(Nc2ncc(Cl)c(N[C@H]3[C@@H](C(N)=O)[C@@H]4C=C[C@H]3C4)n2)ccc2c1C(=O)C[C@@H](NC(C)=O)CC2` [Example 632, (1S,2S,3R,4R)-3-[2-((S)-7-Acetylamino-1-methoxy-9-oxo-6,7,8,9-tetrahydro-5H-benzocyclohepten-2-ylamino)-5-chloro-pyrimidin-4-ylamino]-bicyclo[2.2.1]hept-5-ene-2-carboxylic acid amide] was tested. Which IC50 [1, 9] did it give?
**A.** > 10000 nM

**Q.** And the IC50 [2, 10]?
**A.** 100 to 1000 nM

**Q.** For `CCN1C(=O)CCCc2c1ccc(Nc1ncc(Cl)c(N[C@H]3[C@@H](C(N)=O)[C@@H]4C=C[C@H]3C4)n1)c2OC` [Example 133, (1S,2S,3R,4R)-3-[5-Chloro-2-(1-ethyl-6-methoxy-2-oxo-2,3,4,5-tetrahydro-1H-benzo[b]azepin-7-ylamino)-pyrimidin-4-ylamino]-bicyclo[2.2.1]hept-5-ene-2-carboxylic acid amide], which IC50 [1, 5] is on record?
**A.** > 10000 nM

**Q.** What about the IC50 [2, 6] of the same compound?
**A.** < 100 nM

**Q.** For `CS(=O)(=O)N[C@@H]1CCCC[C@H]1Nc1nc(Nc2ccc3c(c2)C2CCC3CN(S(C)(=O)=O)C2)ncc1Cl` (stereo partly drawn) [Example 294, N-{(1R,2R)-2-[5-Chloro-2-(10-methanesulfonyl-10-aza-tricyclo[6.3.2.0*2,7*]trideca-2,4,6-trien-4-ylamino)-pyrimidin-4-ylamino]-cyclohexyl}-methanesulfonamide], which IC50 [1, 5] is on record?
**A.** 100 to 1000 nM

**Q.** What about the IC50 [2, 6] of the same compound?
**A.** < 100 nM

**Q.** Which results are given for `CCN1C(=O)CCCc2ccc(Nc3ncc(Cl)c(Nc4cccc(CC#N)c4)n3)cc21` [Example 1229, {3-[5-Chloro-2-(1-ethyl-2-oxo-2,3,4,5-tetrahydro-1H-1-benzazepin-8-ylamino)-pyrimidin-4-ylamino]-phenyl}-acetonitrile]?
**A.** IC50 [1, 7]: 100 to 1000 nM; IC50 [2, 8]: 100 to 1000 nM

**Q.** What does the source list for `CNC(=O)c1cc(OC)ccc1Nc1nc(Nc2cc3c(cc2OC)CCN(CCOC)CC3)ncc1Cl` [Example 621, 2-{5-Chloro-2-[8-methoxy-3-(2-methoxy-ethyl)-2,3,4,5-tetrahydro-1H-benzo[d]azepin-7-ylamino]-pyrimidin-4-ylamino}-5-methoxy-N-methyl-benzamide]?
**A.** IC50 [1, 9]: 1000 to 10000 nM; IC50 [2, 10]: < 100 nM

**Q.** What does the source list for `CCN1C(=O)OCCc2cc(Nc3ncc(Cl)c(Nc4ccccc4C(=O)NC)n3)ccc21` [Example 1745, 2-[5-chloro-2-(5-ethyl-6-oxo-5,6,8,9-tetrahydro-7-oxa-5-aza-benzocyclohepten-2-ylamino)-pyrimidin-4-ylamino]-N-methyl-benzamide]?
**A.** IC50 [1, 3]: < 100 nM; IC50 [2, 4]: < 100 nM

**Q.** What does the source list for `CCNC(=O)c1cccc(F)c1Nc1nc(Nc2ccc3c(c2)CNC(=O)CCN3C(C)=O)ncc1Cl` [Example 1228, 2-[2-(1-Acetyl-4-oxo-1,2,3,4,5,6-hexahydro-benzo[b][1,5]diazocin-8-ylamino)-5-chloro-pyrimidin-4-ylamino]-N-ethyl-3-fluoro-benzamide]?
**A.** IC50 [1, 7]: < 100 nM; IC50 [2, 8]: 100 to 1000 nM

**Q.** Which results are given for `CNC(=O)c1sccc1Nc1nc(Nc2ccc3c(c2)OCCCN3C(=O)CN2CCCC2)ncc1Cl` [Example 1715, 3-{5-Chloro-2-[9-(2-pyrrolidin-1-yl-acetyl)-6,7,8,9-tetrahydro-5-oxa-9-aza-benzocyclohepten-3-ylamino]-pyrimidin-4-ylamino}-thiophene-2-carboxylic acid methylamide]?
**A.** IC50 [1, 3]: 100 to 1000 nM; IC50 [2, 4]: 100 to 1000 nM

**Q.** Which results are given for `CCN1CC2CC1CN2c1ccc(Nc2nc(Nc3cc4c(cc3OC)CCN(CC(=O)N(C)C)CC4)ncc2Cl)c(OC)c1` (stereo not shown) [Example 795, 2-(7-{5-Chloro-4-[4-(5-ethyl-2,5-diaza-bicyclo[2.2.1]hept-2-yl)-2-methoxy-phenylamino]-pyrimidin-2-ylamino}-8-methoxy-1,2,4,5-tetrahydro-benzo[d]azepin-3-yl)-N,N-dimethyl-acetamide]?
**A.** IC50 [1, 9]: 1000 to 10000 nM; IC50 [2, 10]: < 100 nM

**Q.** What does the source list for `CNC(=O)c1ccccc1Nc1nc(Nc2ccc3c(c2)CCNCC3)ncc1Cl` [Example 45, 2-[5-Chloro-2-(2,3,4,5-tetrahydro-1H-benzo[d]azepin-7-ylamino)-pyrimidin-4-ylamino]-N-methyl-benzamide]?
**A.** IC50 [1, 5]: < 100 nM; IC50 [2, 6]: < 100 nM

**Q.** `COc1cc2c(cc1Nc1ncc(Cl)c(N[C@@H]3CCCC[C@H]3NS(C)(=O)=O)n1)CCN(CC(C)(F)F)CC2` [Example 784, N-((1R,2R)-2-{5-Chloro-2-[3-(2,2-difluoro-propyl)-8-methoxy-2,3,4,5-tetrahydro-1H-benzo[d]azepin-7-ylamino]-pyrimidin-4-ylamino}-cyclohexyl)-methanesulfonamide] was tested. Which IC50 [1, 9] did it give?
**A.** > 10000 nM

**Q.** And the IC50 [2, 10]?
**A.** < 100 nM

**Q.** How did the IC50 [1, 3] turn out when `COc1cc2c(cc1Nc1ncc(Cl)c(N[C@H]3[C@@H](C(N)=O)[C@@H]4C=C[C@H]3C4)n1)CCN(CC(C)(C)O)CC2` [Example 1560, (1S,2S,3R,4R)-3-{5-Chloro-2-[3-(2-hydroxy-2-methyl-propyl)-8-methoxy-2,3,4,5-tetrahydro-1H-3-benzazepin-7-ylamino]-pyrimidin-4-ylamino}-bicyclo[2.2.1]hept-5-ene-2-carboxylic acid amide] was run?
**A.** > 10000 nM

**Q.** And the IC50 [2, 4]?
**A.** < 100 nM

— US8148391B2 (Cephalon, Inc., priority 2006, dated 2012)
